Test results: ChEMBL document CHEMBL1201862, “PubChem BioAssay data set” (2004)
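Protocol summary: plate cells (96-well), add compound at 5 concentrations, incubate 48 h, interpolate endpoints linearly. GI50 = concentration required for 50% inhibition of growth.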 The source made the active and inactive calls. No stated cut-off is given here; in the data, active = GI50 up to about 1.1 µM and inactive = higher. Square brackets hold non-standard residues; d marks the D form. Peptide text beside a SMILES is read from it. * marks the point of attachment. ξ: configuration not given here. Propanoyl(3-(4-MeO-Ph)) = COc1ccc(CCC(=O)*)cc1; Thr(3ξ) = CC(O)[C@H](N)C(=O)O; dNMeL = CN[C@H](CC(C)C)C(=O)O; ξLac = CC(O)C(=O)O

Key:
Experiment in all cases: NCI anticancer screen, dose series, 48 h
[1] = system: A498
[2] = system: A549
[3] = system: ACHN
[4] = system: CAKI-1
[5] = system: CCRF-CEM
[6] = system: EKVX
[7] = system: K562
[8] = system: LOX IMVI
[9] = system: M14
[10] = system: MDA-MB-231
[11] = system: MOLT-4
[12] = system: NCI-H226
[13] = system: NCI-H460
[14] = system: OVCAR-8
[15] = system: SK-OV-3
[16] = system: SNB-75
[17] = system: SW-620
[18] = system: T47D
[19] = system: TK-10
[20] = system: U-251

Measured: GI50

COC(=O)[C@@H](NC(=O)[C@@H](CC(C)C)N(C)C(=O)[C@@H]1CCCN1C(=O)C(C)O)C(C)OC(=O)CCc1ccc(OC)cc1 (stereo not given in full) (H-[ξLac]P[dNMeL][Thr(3ξ)](Propanoyl(3-(4-MeO-Ph)))-OMe)
inactive: [1] > 100 µM | [2] > 100 µM | [3] > 100 µM | [4] > 100 µM | [5] > 100 µM | [6] > 100 µM | [7] > 100 µM | [8] > 100 µM | [9] > 100 µM | [10] > 100 µM | [11] 60.5 µM | [12] > 100 µM | [13] > 100 µM | [14] > 100 µM | [15] > 100 µM | [16] > 100 µM | [17] > 100 µM | [18] > 100 µM | [19] > 100 µM | [20] > 100 µM
